Measured values from US7026317B2, “Pyrazolotriazines as CRF antagonists” (Bristol-Myers Squibb Pharma Company, priority 1999, dated 2006).

| melting point | SMILES |
| --- | --- |
| 91 to 93 °C | CCc1nn2c(-c3ccc(Cl)cc3Cl)nc(C)nc2c1C(CC)CC [compound 1, 4-(2,4-dichlorophenyl)-8-(3-pentyl)-7-ethyl-2-methyl-pyrazolo[1,5-a]-1,3,5-triazine] |
| 98 to 99 °C | CCc1nn2c(-c3ccc(Cl)cc3Cl)nc(C)nc2c1N(CC)CC [compound 3, 4-(2,4-dichlorophenyl)-8-diethylamino-7-ethyl-2-methyl-pyrazolo[1,5-a]-1,3,5-triazine] |
